Results published in patent publication US8933195B2, “Histone deacetylase inhibitors and synthetic method thereof and use thereof in manufacture of medicaments” (Nanjing Yoko Biomedical R & D Ltd., priority 2011, dated 2015).

Columns and labels:
[1] = target: HDAC1 (Homo sapiens, UniProt Q13547); assay: Measurement of biochemical activities of HDAC (fluorescently-labeled acetylated lysine substrate); settings: read-out: IC50 HDAC1
Summary of the method: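 For both HDAC isoforms, fluorescent acetyl-lysine substrate ([…] in reaction) incubated with enzyme and compounds for 30 min at 37; developer then added for 15 min at room temperature. Fluorescence read at excitation 360 nm, emission 460 nm.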

[2] = tested on: Human Blood Acute Monocytic Leukemia U937; assay: Subcutaneously transplanted tumors in nude mice; assay type: in vivo; settings: 20 mg/kg
Description: Tumor tissues in the vigorous growth period are cut into about 1.5 mm^3, and inoculated to the right axilla subcutaneous layer of the nude mice under aseptic conditions. For the subcutaneously transplanted tumors of the nude mice, the diameter of the transplanted tumors is measured by a vernier caliper. The mice are randomly grouped after the tumors grow to 100-200 mm^3. […] The diameter of the transplanted tumors is measured twice per week in the whole experimental process, and meanwhile the weight of the mice is weighed. The calculation formula of tumor volume (TV) is TV=½×a×b^2, where a and b represent length and width, respectively.
The relative tumor volume (RTV) is calculated according to the measured results, with the following calculation formula: RTV=Vt/V0, where V0 is the tumor volume obtained by measurement during administration in different cages (i.e., d0), Vt is the tumor volume obtained by measurement at each time. […] (Wc−WT)Wc×100%, where Wc is the tumor weight of the control group, and WT is the tumor weight of the treatment group.

Sequence of HDAC1 (Q13547 whole entry, species assumed, canonical isoform): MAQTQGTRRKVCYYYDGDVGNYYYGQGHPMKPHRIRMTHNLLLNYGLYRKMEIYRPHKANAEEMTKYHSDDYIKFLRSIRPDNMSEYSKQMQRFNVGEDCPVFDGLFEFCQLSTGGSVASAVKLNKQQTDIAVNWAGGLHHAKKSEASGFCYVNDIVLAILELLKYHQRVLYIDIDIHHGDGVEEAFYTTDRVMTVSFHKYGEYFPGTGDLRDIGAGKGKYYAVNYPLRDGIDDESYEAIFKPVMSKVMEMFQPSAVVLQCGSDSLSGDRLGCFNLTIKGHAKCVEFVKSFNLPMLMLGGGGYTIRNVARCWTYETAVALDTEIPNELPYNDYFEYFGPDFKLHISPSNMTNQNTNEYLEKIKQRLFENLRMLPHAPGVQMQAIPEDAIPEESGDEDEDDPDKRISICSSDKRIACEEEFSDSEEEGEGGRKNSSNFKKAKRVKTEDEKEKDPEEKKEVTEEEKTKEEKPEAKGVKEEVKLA

| Compound | IC50 [1] [µM] | Tumor Inhibition Rate (1 − T/C) × 100% [2] [%] |
| --- | --- | --- |
| C/C=C1\NC(=O)c2csc(n2)CNC(=O)C[C@@H](/C=C/CCSC(=O)CCCCCCC)OC(=O)[C@H](C(C)C)NC1=O [Compound 1-3] | < 10 | 65.21 |
| C/C=C1\NC(=O)c2csc(n2)CNC(=O)C[C@@H](/C=C/CCSC(=O)CCCCCCC)OC(=O)[C@H](Cc2ccc(O)cc2)NC1=O [Compound 1-8] | < 0.102 | 68.32 |
| C/C=C1\NC(=O)c2csc(n2)CNC(=O)C[C@@H](/C=C/CCSC(=O)CCCCCCC)OC(=O)[C@H](Cc2ccccc2)NC1=O [Compound 1-7] | < 10 |  |
| C/C=C1\NC(=O)c2csc(n2)CNC(=O)C[C@@H](/C=C/CCSC(=O)CCCCCCC)OC(=O)[C@H](C(C)(C)C)NC1=O [Compound 1-6] | < 10 | 66.37 |
| C/C=C1\NC(=O)c2csc(n2)CNC(=O)C[C@@H](/C=C/CCSC(=O)CCCCCCC)OC(=O)[C@H](C)NC1=O [Compound 1-4] | < 1 |  |
